Reference: the supplement of paper PMC11061612

Columns and labels:
[1] = tested on: SK-GT-2 (Gastric Carcinoma); test: combination Emax (second highest fraction inhibited in the dose matrix, 72 h); higher = more inhibition; extreme values may be limits of the assay
Outline: (§1)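 Cell lines grown in DMEM/F12 or RPMI with 10% FBS were plated in 1536-well plates and held 24 hours at 37°C, 5% CO2 before 72 hours of exposure to two-drug dose matrices, with DMSO typically at 0.2%. CellTiter-Glo 2.0 luminescence gave viability, which was converted to inhibition. Vehicle wells were set to 0 and blank wells to 1. Combination Emax is the second-highest inhibition in the matrix, and Bliss excess is the observed combination effect minus the expected EA + EB − EA·EB, where EA and EB are the single-agent effects.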

[2] = tested on: SU-DHL-5 (B-Cell Non-Hodgkin's Lymphoma); test: Bliss excess, mean over the matrix (fraction); higher = more synergy
Outline: as §1

[3] = tested on: ESO51 (Esophageal Adenocarcinoma); test: as above
Outline: as §1

[4] = tested on: SUP-B15 (B-Lymphoblastic Leukemia); test: as above
Outline: as §1

NCI-H2731 (Mesothelioma) = test: as above
Outline: as §1

[5] = tested on: VMRC-RCZ (Kidney Carcinoma); test: as above
Outline: as §1

G-361 (Melanoma) = test: as above
Outline: as §1

[6] = tested on: CHSA8926 (Chondrosarcoma); test: as above
Outline: as §1

[7] = tested on: SK-GT-4 (Esophageal Adenocarcinoma); test: as above
Outline: as §1

[8] = tested on: T-T (Esophageal Squamous Cell Carcinoma); test: as above
Outline: as §1

[9] = tested on: MN-60 (B-Lymphoblastic Leukemia); test: as above
Outline: as §1

[10] = tested on: IM-95 (Gastric Carcinoma); test: as above
Outline: as §1

[11] = tested on: NCI-H526 (Small Cell Lung Carcinoma); test: as above
Outline: as §1

[12] = tested on: KYSE-270 (Esophageal Squamous Cell Carcinoma); test: as above
Outline: as §1

[13] = tested on: SK-GT-2 (Gastric Carcinoma); test: as above
Outline: as §1

[14] = tested on: CW-2 (Colorectal Carcinoma); test: as above
Outline: as §1

[15] = tested on: JHH-4 (Hepatocellular Carcinoma); test: as above
Outline: as §1

[16] = tested on: COR-L279 (Small Cell Lung Carcinoma); test: as above
Outline: as §1

[17] = tested on: KU812 (Chronic Myelogenous Leukemia); test: as above
Outline: as §1

[18] = tested on: H9 (T-Cell Non-Hodgkin's Lymphoma); test: as above
Outline: as §1
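For Bliss excess, mean over the matrix in this document: after 72 h of two-drug dosing.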

Structure (SMILES)	combination Emax [1]	Bliss excess [2]	Bliss excess [3]	Bliss excess [4]	Bliss excess (NCI-H2731 (Mesothelioma))	Bliss excess [5]	Bliss excess (G-361 (Melanoma))	Bliss excess [6]	Bliss excess [7]	Bliss excess [8]	Bliss excess [9]	Bliss excess [10]	Bliss excess [11]	Bliss excess [12]	Bliss excess [13]	Bliss excess [14]	Bliss excess [15]	Bliss excess [16]	Bliss excess [17]	Bliss excess [18]
CC1(C)CCC(CN2CCN(c3ccc(C(=O)NS(=O)(=O)c4ccc(NCC5CCOCC5)c([N+](=O)[O-])c4)c(Oc4cnc5[nH]ccc5c4)c3)CC2)=C(c2ccc(Cl)cc2)C1 [Venetoclax] + CN(C)CCCOc1ccc(-c2ccc3ncc4c(c3c2)n(C2CCOCC2)c(=O)n4C)cn1 [AZD0156] (first compound max 1 µM, 7x7, partner max 1 µM)	0.155	0.0045	-0.014	-0.0392	-0.029	-0.0492	-0.0123	-0.0249	-0.0544	0.0197	-0.0045	-0.0016	0.0393	0.0107	0.005	0.0285	-0.0078	0.0043	-0.0404	-0.0035
COc1nnc2ccc(N3CCC(c4ccc(OCCN5CCN(C)C(=O)[C@H]5C)cc4)CC3)nn12 [AZD5153] + CC1(C)CCC(CN2CCN(c3ccc(C(=O)NS(=O)(=O)c4ccc(NCC5CCOCC5)c([N+](=O)[O-])c4)c(Oc4cnc5[nH]ccc5c4)c3)CC2)=C(c2ccc(Cl)cc2)C1 [Venetoclax] (first compound max 1 µM, 7x7, partner max 1 µM)	0.256	-0.0107	-0.0346	0.0051	-0.085	-0.0224	-0.0649	-0.0287	-0.0444	-0.0319	-0.0708	-0.0663	0.0192	-0.0185	-0.028	-0.0642	-0.0442	-0.0945	-0.058	0.0162
COc1nnc2ccc(N3CCC(c4ccc(OCCN5CCN(C)C(=O)[C@H]5C)cc4)CC3)nn12 [AZD5153] + Cc1c2c(nn1C)CSCc1cc(n(C)n1)CSc1cc(c3ccccc3c1)OCCCc1c(C(=O)O)n(C)c3c-2c(Cl)ccc13 [AZD5991] (first compound max 1 µM, 7x7, partner max 1 µM)	0.319	-0.0264	-0.0093	0.0356	-0.0327	-0.022	0.0501	-0.0166	-0.0304	-0.0157	-0.0765	-0.0477	0.03	0.0085	0.0224	-0.0629	0.0096	0.08	-0.0007	-0.0056
COc1cccc(OCCCN)c1-c1cc(Nc2cnc(C#N)cn2)n[nH]1 [Prexasertib] + CN(C)CCCOc1ccc(-c2ccc3ncc4c(c3c2)n(C2CCOCC2)c(=O)n4C)cn1 [AZD0156] (first compound max 1 µM, 7x7, partner max 1 µM)	0.823	-0.0089	-0.0414	-0.0513	-0.012	-0.0279	0.061	-0.039	-0.0116	0.0061	-0.0077	0.0384	-0.0158	-0.0024	-0.0519	0.0498	-0.0346	0.0053	-0.061	0.0022
Cc1cc2ncnn2cc1Nc1ncc2c(n1)n(C1CCOCC1)c(=O)n2C [AZD7648] + O=C(c1cc(Cc2n[nH]c(=O)c3ccccc23)ccc1F)N1CCN(C(=O)C2CC2)CC1 [Olaparib] (first compound max 10 µM, 7x7, partner max 10 µM)	0.0892	0.0091	-0.0056	0.0239	-0.069	-0.0546	-0.043	-0.0511	-0.0258	-0.0642	-0.0115	-0.0303	-0.0129	-0.034	-0.0297	-0.0201	-0.0213	-0.0256	-0.0425	-0.0049
CC1(C)CCC(CN2CCN(c3ccc(C(=O)NS(=O)(=O)c4ccc(NCC5CCOCC5)c([N+](=O)[O-])c4)c(Oc4cnc5[nH]ccc5c4)c3)CC2)=C(c2ccc(Cl)cc2)C1 [Venetoclax] + C[C@@H](Nc1cc(F)cc(F)c1)c1cc(C(=O)N(C)C)cc2c(=O)cc(N3CCOCC3)oc12 [AZD8186] (first compound max 1 µM, 7x7, partner max 3 µM)	0.0218	0.0358	0.0204	-0.0587	-0.0484	-0.0215	0.0075	0.0214	-0.0263	0.0094	0.044	-0.068	0.033	-0.0186	-0.0271	-0.007	0.0064	0.0138	-0.024	-0.0159
CN(CCO)CC[C@H](CSc1ccccc1)Nc1ccc(S(=O)(=O)NC(=O)c2ccc(N3CCC([C@@H](O)c4ccccc4-c4ccc(Cl)cc4)CC3)cc2)cc1S(=O)(=O)C(F)(F)F [AZD4320] + Cn1cnc2c(F)c(Nc3ccc(Br)cc3Cl)c(C(=O)NOCCO)cc21 [Selumetinib] (first compound max 1 µM, 7x7, partner max 3 µM)	0.241	0.0368	0.0355	0.0853	-0.0124	-0.0195	0.028	-0.0256	0.0128	0.0564	0.0026	0.0132	-0.0061	0.0148	0.0177	0.0454	-0.0091	-0.0029	0.0375	-0.0113
Cc1c2c(nn1C)CSCc1cc(n(C)n1)CSc1cc(c3ccccc3c1)OCCCc1c(C(=O)O)n(C)c3c-2c(Cl)ccc13 [AZD5991] + CC1(C)CCC(CN2CCN(c3ccc(C(=O)NS(=O)(=O)c4ccc(NCC5CCOCC5)c([N+](=O)[O-])c4)c(Oc4cnc5[nH]ccc5c4)c3)CC2)=C(c2ccc(Cl)cc2)C1 [Venetoclax] (first compound max 1 µM, 7x7, partner max 1 µM)	0.198	-0.0379	-0.0008	0.0213	-0.0519	-0.0605	0.008	-0.031	-0.0914	-0.0051	-0.031	0.0119	0.243	0.0348	-0.0035	0.0005	0.0098	0.0071	0.0353	0.0048
CC1(C)CCC(CN2CCN(c3ccc(C(=O)NS(=O)(=O)c4ccc(NCC5CCOCC5)c([N+](=O)[O-])c4)c(Oc4cnc5[nH]ccc5c4)c3)CC2)=C(c2ccc(Cl)cc2)C1 [Venetoclax] + COc1cc(Nc2ncc3c(n2)-c2ccc(Cl)cc2C(c2c(F)cccc2OC)=NC3)ccc1C(=O)O [Alisertib] (first compound max 1 µM, 7x7, partner max 10 µM)	0.241	-0.003	-0.0192	0.0151	-0.0311	-0.0292	0.0863	-0.025	-0.107	0.0325	0.0368	0.005	0.194	-0.016	-0.0274	-0.0094	-0.0328	0.103	-0.0121	-0.0674
COc1cccc(OCCCN)c1-c1cc(Nc2cnc(C#N)cn2)n[nH]1 [Prexasertib] + C=CCn1c(=O)c2cnc(Nc3ccc(N4CCN(C)CC4)cc3)nc2n1-c1cccc(C(C)(C)O)n1 [AZD1775] (first compound max 1 µM, partner max 1 µM)	0.899	0.0644	-0.0153	0.0224	0.0338	-0.02	0.0806	-0.0416	0.0313	0.208	0.0534	0.0876	0.0502	0.217	0.0286	0.0224	0.0703	0.0823	-0.0401	0.0958
Cc1c2c(nn1C)CSCc1cc(n(C)n1)CSc1cc(c3ccccc3c1)OCCCc1c(C(=O)O)n(C)c3c-2c(Cl)ccc13 [AZD5991] + C[C@@H](Nc1cc(F)cc(F)c1)c1cc(C(=O)N(C)C)cc2c(=O)cc(N3CCOCC3)oc12 [AZD8186] (first compound max 1 µM, 7x7, partner max 3 µM)	0.179	0.0109	-0.0134	-0.0091	-0.0626	0.0141	-0.0082	0.091	-0.0185	0.0265	-0.0454	-0.0348	0.0192	0.027	0.015	0.0051	-0.0164	-0.0011	-0.0554	-0.0485
CN(CCO)CC[C@H](CSc1ccccc1)Nc1ccc(S(=O)(=O)NC(=O)c2ccc(N3CCC([C@@H](O)c4ccccc4-c4ccc(Cl)cc4)CC3)cc2)cc1S(=O)(=O)C(F)(F)F [AZD4320] + C=CCn1c(=O)c2cnc(Nc3ccc(N4CCN(C)CC4)cc3)nc2n1-c1cccc(C(C)(C)O)n1 [AZD1775] (first compound max 1 µM, partner max 1 µM)	0.983	0.0007	0.0693	0.0733	-0.0106	-0.0418	0.0539	0.102	-0.0438	0.0409	-0.0058	-0.0023	0.0367	0.0126	0.0322	0.0032	-0.0041	0.0798	0.0788	0.0178
CN(C)CCCOc1ccc(-c2ccc3ncc4c(c3c2)n(C2CCOCC2)c(=O)n4C)cn1 [AZD0156] + C=CCn1c(=O)c2cnc(Nc3ccc(N4CCN(C)CC4)cc3)nc2n1-c1cccc(C(C)(C)O)n1 [AZD1775] (first compound max 1 µM, partner max 1 µM)	0.714	-0.0016	0.0363	0.0282	-0.0898	-0.0797	-0.0556	-0.106	-0.0676	-0.0122	0.0193	-0.0366	-0.0258	0.0314	-0.0776	-0.0106	-0.0065	-0.0763	-0.0046	-0.0167
C[C@@H]1COCCN1c1cc(C2([S@](C)(=N)=O)CC2)nc(-c2ccnc3[nH]ccc23)n1 [AZD6738] + O=C(c1cc(Cc2n[nH]c(=O)c3ccccc23)ccc1F)N1CCN(C(=O)C2CC2)CC1 [Olaparib] (first compound max 10 µM, 7x7, partner max 10 µM)	0.355	0.002	-0.102	-0.0608	-0.0266	0.0181	-0.0052	0.01	-0.046	-0.0237	-0.042	0.031	-0.0072	-0.013	0.0148	0.0008	-0.0325	0.0042	-0.0429	0.0058
